Results on 24 compounds are retold here after article PMC8306904, “Discovery of New Hits as Antitrypanosomal Agents by In Silico and In Vitro Assays Using Neolignan-Inspired Natural Products from Nectandra leucantha” (Molecules, 2021).

Series [1] concerns amastigote forms of T. cruzi. Put plainly: Activity against amastigote forms of T. cruzi in infected macrophages. The class given is cell-based, Trypanosoma cruzi. The conditions noted are these: for SI: selectivity index (ratio CC50/IC50): CC50 against NCTC cells/IC50 against amastigotes. The method, then:
To perform the experiments, peritoneal macrophages from BALB/c mice were infected with trypomastigotes forms of T. cruzi. The macrophages obtained from the peritoneal cavity of BALB/c mice were seeded on a 16-well chamber slide (NUNC plate, Merck; 1 × 10^5/well) and incubated for 24 h at 37 °C in a 5% CO2-humidified incubator. The trypomastigotes LLC-MK2 were counted and used to infect the macrophages (parasite:macrophage ratio = 10:1). After 2 h incubation at 37 °C in a 5% CO2-humidified incubator, free parasites were removed by 1× washing with the medium. […] Benznidazole was used as the standard drug. At the end of the assay, slides were fixed with MeOH, stained with Giemsa, and counted using light microscopy. The IC50 values were calculated as previously reported.

Series [2] has as its system amastigote forms of T. cruzi. Further details: method as in PMID 28864277, PMID 31103897, PMID 33047947. The conditions noted are these: read-out: IC50, 50% inhibitory concentration against amastigote forms of T. cruzi; intracellular amastigotes; compounds 9–33 and 36–50; ref [8],[10],[26]; cited from earlier work.
Series [3] concerns NCTC cells-clone L929. On the set-up: method as in PMID 28864277, PMID 31103897, PMID 33047947. The conditions noted are these: read-out: CC50, 50% cytotoxic concentration in NCTC cells (ATCC, clone 929); compounds 9–33 and 36–50; ref [8],[10],[26]; cited from earlier work.
The nature of series [4]: Cytotoxicity against mammalian cells (MTT). The class given is cell-based. The settings on record: mouse, NCTC clone L929 cells (murine conjunctive cells). The method, then:
The optical density was determined using FilterMax F5 (Molecular Devices) at 570 nm. We calculated the selectivity index (SI) values using the following equation: CC50 against NCTC cells/IC50 against amastigotes.

Where [5] appears, read: Trypanosoma cruzi, Macrophage, -log IC50 against amastigotes, Table 1 and Figure 7, read-out: pIC50 Experimental (converted).
Where [6] appears, read: Trypanosoma cruzi, Macrophage, Table S2, -log IC50, supplement numbering, read-out: pIC50 (converted).
The mark [7] stands for this setting: Trypanosoma cruzi, Peritoneal macrophage, in Mus musculus, 48 h, read-out: IC50, 50% inhibitory concentration against amastigote forms of T. cruzi, intracellular amastigotes in BALB/c peritoneal macrophages, 48 h, 30 to […].

Like-named read-outs stand apart in the source and are kept apart here.

`COc1cc(CC(C)O)ccc1Oc1cc(CC(C)O)cc(OC)c1OC` (stereo not drawn) [Compound 31]: in series [1], the “SI: selectivity index (ratio CC50/IC50)” value is reported as over 15.0. In addition, the IC50 was 13.2 µM in series [1] (setting [5]), 28.2 µM in series [1] (setting [6]) and 13.3 ± 3.6 µM in series [2]. The CC50 in series [3] is over 200 µM.

Regarding `CCCOc1c(OC)cc(CCC)cc1Oc1ccc(CCC)cc1OC` [Compound 18], the IC50 is over 30 µM in series [1] (setting [5]), 87.1 µM in series [1] (setting [6]) and over 30 µM in series [2]. Further, in series [3], the CC50 was over 200 µM.

On to `C=CCc1ccc(Oc2cc(CC=C)cc(OC)c2O)cc1` [Compound 45], for which the “SI: selectivity index (ratio CC50/IC50)” value in series [1] is 5.5. Also, the IC50 is 22.4 µM in series [1] (setting [5]) and 22.5 ± 18.8 µM in series [2]. Also, the CC50 in series [3] is 123 ± 9.8 µM.

Take `C=CCc1ccc(Oc2cccc(OC)c2OC)c(OC)c1` [Compound 42]: the “SI: selectivity index (ratio CC50/IC50)” value in series [1] was over 7.8. Further, the figures for the IC50 in series [1] (setting [5]) and in series [2] were 25.7 µM and 25.7 ± 12.2 µM, respectively. In series [3], the CC50 is over 200 µM.

On to `C=CCc1cc(OC)c(OCc2ccc(OC)cc2)c(Oc2ccccc2OC)c1` [Compound 48], for which the IC50 in series [1] (setting [5]) and in series [2] was over 30 µM throughout. In addition, the CC50 in series [3] was over 200 µM.

Take `C=CCc1ccc(Oc2cc(C(=O)C=C)cc(OC)c2OC(C)=O)c(OC)c1` [Compound 7, 4-Acetoxy-5-methoxy-3-[3′-methoxy-1′-(8′-propenyl)phenoxy]-1-(7-oxo-8-propenyl)benzene]: the “pIC50 Experimental” value in series [1] (-log IC50 against amastigotes, Table 1 and Figure 7) came out at 5.38. In addition, the “SI: selectivity index (ratio CC50/IC50)” value in series [1] was over 47.6. The IC50 is 4.27 µM in series [1] (setting [5]); 9.55 µM in series [1] (Trypanosoma cruzi, Macrophage, Table S1, test set, supplement numbering, read-out: Exp. pIC50 (converted)); 4.3 µM in series [1] (setting [7]); 4.2 ± 1.1 µM in series [1] (read-out: IC50, 50% inhibitory concentration against amastigote forms of T. cruzi, intracellular amastigotes in BALB/c peritoneal macrophages, 48 h, 30 to […]). Moreover, the CC50 at 48 h in series [4] was over 200 µM.

Take `CCCc1ccc(Oc2cc(CCC)cc(OC)c2OC)c(OC)c1` [Compound 22]: the IC50 in series [1] (setting [5]) and in series [2] was over 30 µM in each case. Further, in series [3], the CC50 is over 200 µM.

For `C=CCc1ccc(Oc2cc([C@@H](O)C=C)cc(OC)c2OC)c(OC)c1` [Compound 4, 1-[(7S)-hydroxy-8-propenyl]-3-[3′-methoxy-1′-(8′-propenyl)-phenoxy]-4,5-dimethoxybenzene], the “SI: selectivity index (ratio CC50/IC50)” value in series [1] is recorded as over 14.0. For the same compound, the IC50 in series [1] (setting [5]) was 14.5 µM; in series [1] (setting [6]), 7.94 µM; in series [1] (setting [7]), 14.3 ± 1.9 µM. The CC50 at 48 h in series [4] is over 200 µM.

As for `C=CCc1cc(OC)c(OC)c(Oc2ccccc2OC)c1` [Compound 47], the IC50 in series [1] (setting [5]) and in series [2] was over 30 µM throughout. In series [3], the CC50 is over 200 µM.

On to `C=CCc1ccc(Oc2cc(CCC)cc(OC)c2O)c(OC)c1` [Compound 37], for which the “SI: selectivity index (ratio CC50/IC50)” value in series [1] was determined as 1.4. In addition, the IC50 is 10.5 µM in series [1] (setting [5]) and 10.5 ± 8.3 µM in series [2]. The CC50 in series [3] was 14.2 ± 0.1 µM.

As for `C=CCc1cc(OC)cc(Oc2ccc(CC=C)cc2OC)c1` [Compound 34], the “SI: selectivity index (ratio CC50/IC50)” value in series [1] was over 34.5. Moreover, the IC50 in series [1] (setting [5]) is 5.75 µM; in series [1] (setting [7]) it was 5.8 ± 0.7 µM. The compound further displayed a CC50 at 48 h in series [4] of over 200 µM.

As to `C=CCc1ccc(Oc2cc(C(=O)C=C)cc(OC)c2OC)c(OC)c1` [Compound 6, 4,5-dimethoxy-3-[3′-methoxy-1′-(8′-propenyl)phenoxy]-1-(7-oxo-8-propenyl)benzene], the “SI: selectivity index (ratio CC50/IC50)” value in series [1] is over 7.6. Besides, the IC50 in series [1] (setting [5]) is 26.3 µM; in series [1] (setting [6]), 30.2 µM; in series [1] (setting [7]) it was 26.3 ± 1.3 µM. The compound also had a CC50 at 48 h in series [4] of over 200 µM.

`C=CCc1ccc(Oc2cc(CC=C)cc(OC)c2OCCCCC)c(OC)c1` [Compound 8]: the IC50 in series [1] (setting [5]) and in series [1] (setting [7]) was over 30 µM throughout. The compound further had a CC50 at 48 h in series [4] of over 200 µM.

For the compound `C=CCOc1c(OC)cccc1Oc1ccc(CC=C)cc1OC` [Compound 49], the IC50 in series [1] (setting [5]) and in series [2] was over 30 µM in each case. Besides, the CC50 in series [3] was over 200 µM.

Turning to `C=CCc1ccc(Oc2cc([C@@H](O)C=C)cc(OC)c2O)c(OC)c1` [Compound 3, 1-[(7S)-hydroxy-8-propenyl]-3-[3′-methoxy-1′-(8′-propenyl)-phenoxy]-4-hydroxy-5-methoxybenzene], the IC50 in series [1] (setting [5]) and in series [1] (setting [7]) was over 30 µM each time. The CC50 at 48 h in series [4] is over 200 µM.

For `C=CCc1ccc(Oc2cc(CCC)cc(OC)c2OCc2ccc(OC)cc2)c(OC)c1` [Compound 41], the “SI: selectivity index (ratio CC50/IC50)” value in series [1] is recorded as over 14.9. Also, the IC50 was 13.5 µM in series [1] (setting [5]) and 13.4 ± 5.4 µM in series [2]. Also, the CC50 in series [3] is over 200 µM.

Take `C=CCc1cc(OC)c(OC)c(Oc2ccc(CCC)cc2OC)c1` [Compound 38]: in series [1], the “SI: selectivity index (ratio CC50/IC50)” value is over 17.1. Further, the results for the IC50 in series [1] (setting [5]) and in series [2] were 11.7 µM and 11.7 ± 7 µM, respectively. Besides, the CC50 in series [3] was over 200 µM.

Take `C=CCc1cc(OC)c(OCc2ccc(OC)cc2)c(Oc2ccc(CCC)cc2OC)c1` [Compound 40]: the “SI: selectivity index (ratio CC50/IC50)” value in series [1] is recorded as over 23.3. The IC50 in series [1] (setting [5]) was 8.51 µM; in series [2], 8.6 ± 2.1 µM. For the same compound, the CC50 in series [3] is over 200 µM.

As for `O=C(Cn1ccnc1[N+](=O)[O-])NCc1ccccc1` [Bzd, benznidazole, reference compound], the “SI: selectivity index (ratio CC50/IC50)” value in series [1] amounted to 34.5. The IC50 was 5.5 µM in series [1] (setting [5]) and 5.5 ± 1.4 µM in series [1] (setting [7]). This compound also gave a CC50 at 48 h in series [4] of 190 ± 13.5 µM.

Take `C=CCc1ccc(Oc2cc(CC=C)cc(OC)c2OCc2ccc(OC)cc2)cc1` [Compound 46]: in series [1], the “SI: selectivity index (ratio CC50/IC50)” value is recorded as over 18.2. Also, the values for the IC50 in series [1] (setting [5]), in series [1] (setting [6]) and in series [2] were 11.5 µM, 11 µM and 11 ± 2.3 µM, respectively. In series [3], the CC50 was over 200 µM.

`CCCc1cc(OC)cc(Oc2ccc(CCC)cc2OC)c1` [Compound 35]: the “SI: selectivity index (ratio CC50/IC50)” value in series [1] is over 18.3. For the same compound, the IC50 in series [1] (setting [5]) is 11 µM; in series [1] (setting [7]) it was 10.9 ± 6.5 µM. Besides, in series [4], the CC50 at 48 h was over 200 µM.

As for `C=CCc1ccc(Oc2cc(C(=O)C=C)cc(OC)c2O)c(OC)c1` [Compound 5, 4-hydroxy-5-methoxy-3-[3′-methoxy-1′-(8′-propenyl)phenoxy]-1-(7-oxo-8-propenyl)benzene], the IC50 in series [1] (setting [5]) was over 30 µM; in series [1] (setting [6]), 10 µM; in series [1] (setting [7]), over 30 µM. This compound showed a CC50 at 48 h in series [4] of over 200 µM.

On to `C=CCc1cc(OC)cc(Oc2cc(CC=C)cc(OC)c2OS(=O)(=O)C(F)(F)F)c1` [Compound 33], for which the results for the IC50 in series [1] (setting [5]), in series [1] (setting [6]) and in series [2] were over 30 µM, 4.27 µM and over 30 µM, respectively. Moreover, the CC50 in series [3] is over 200 µM.

For `COc1cc(CC2CO2)ccc1Oc1cc(CC2CO2)cc(OC)c1OC` (stereo not drawn) [Compound 25], the IC50 in series [1] (setting [5]) and in series [2] was over 30 µM in each case. Also, the CC50 in series [3] is over 200 µM.
